According to patent US6979732B1, “Polynucleotide compositions encoding S-adenosyl-L-methionine:phosphoethanolamine N-methyltransferase and methods for modulating lipid biosynthesis in plants” (University of Florida, priority 2000, dated 2005):
Each block holds one molecule with its values, some of them ahead of it.

Assays:
[1] = molecular target: T1, PEAMT (Spinacia oleracea, UniProt Q9M571); assay: PEAMT activity assay with extracts of S. pombe Bx22 cells expressing recombinant wild type PEAMT; type: biochemical; settings: for inhibition of PEAMT activity (in words): metabolite at 2 mM
T1 construct: The PEAMT cDNA comprises a 494-residue open reading frame; made in house; host or cells: Schizosaccharomyces pombe Bx22 (leu1 cho2-) carrying pREP3-PEAMT; desalted crude extract, not purified
T1 sequence (Q9M571 1-494): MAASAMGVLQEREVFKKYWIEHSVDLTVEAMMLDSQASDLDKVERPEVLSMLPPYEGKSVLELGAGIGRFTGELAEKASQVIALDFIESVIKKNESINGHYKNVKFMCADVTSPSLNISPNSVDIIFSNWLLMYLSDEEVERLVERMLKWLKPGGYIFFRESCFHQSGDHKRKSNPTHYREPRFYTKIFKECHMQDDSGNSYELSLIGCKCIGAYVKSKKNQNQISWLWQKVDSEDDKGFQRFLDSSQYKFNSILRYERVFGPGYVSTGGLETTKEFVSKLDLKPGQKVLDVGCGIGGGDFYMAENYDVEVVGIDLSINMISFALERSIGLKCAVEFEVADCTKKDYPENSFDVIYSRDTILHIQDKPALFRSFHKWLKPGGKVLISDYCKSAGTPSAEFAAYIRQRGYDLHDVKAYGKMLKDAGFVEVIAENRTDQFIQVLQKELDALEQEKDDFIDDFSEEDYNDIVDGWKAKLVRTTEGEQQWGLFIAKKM
Protocol: Cells were grosn to an OD600 of ≈1 in 50 ml of medium at 30° C., shaking at 250 rpm. […] Subsequent operations were at 0-4° C. Cells were harvested by centrifugation (5000×g, 10 min), washed twice with water and once with 100 mM HEPES-KOH, pH 7.8, resuspended in 0.5 ml of lysis buffer (100 mM HEPES-KOH, pH 7.8, 2 mM Na2EDTA, 5 mM dithiothreitol, 10% glycerol) and transferred to 2-ml microfuge tubes containing ≈1.5 g of acid-washed glass beads (425-600 μm). Cells were broken by vortexing at maximum speed for 2 min. The brei was centrifuged (16,000×g, 2 min), the supernatant was removed and the beads were washed with 3×1 ml of lysis buffer. The combined supernatants were clarified by centrifugation (16,000×g, 15 min) and desalted on a PD-10 column (Amersham Pharmacia Biotech, Piscataway, N.J.) equilibrated with storage buffer (10 mM HEPES-KOH, pH 7.8, 2 mM Na2EDTA, 5 mM dithiotreitol, 10% glycerol). The extract was aliquotted, frozen in liquid N2 and stored at […]. Spinach leaf extracts were prepared as described (Summers and […], 1993). Protein was determined using the Bio-Rad dye reagent (Hercules, Calif.). Native molecular mass was estimated using a Waters 626 HPLC system (Milford, Mass.) equipped with a Superdex 200 HR 10/30 column (Amersham Pharmacia Biotech) as described ([…] al., 1995). PEAMT activity was measured by a modification of published methods (Datko and Mudd, 1988b; Summers and […], 1993), under conditions in which product formation was proportional to enzyme concentration and time. […] Reactions were stopped by adding 1 ml of ice-cold water; each was applied to a 1-ml AG-50 (HR^+) column held at 4° C. and the assay tube was rinsed with 1 ml of water, which was also applied to the column. Products were eluted with 10 ml of 0.1 N HCl, and 2 ml of the eluate was mixed with 3 ml of Ready Gel scintillation fluid (Beckman, Palo Alto, Calif.) and counted. For assay blanks, enzyme was omitted during incubation and added just before the ion exchange step.

[2] = molecular target: T1, PEAMT; assay: AdoMet:EA N-methyltransferase activity assay of the complemented strain; type: biochemical; settings: complemented strain extract
Protocol: (§1) AdoMet:EA N-methyltransferase activity was assayed as above except that reactions contained 200 nmol EA and 160 nmol (40 nCi) of [methyl-^14C]AdoMet. The [methyl-^14C]AdoMet was removed by treating with activated charcoal and centrifuging (Cook and Wagner, 1984), and ^14C-incorporation into freebase products was measured by counting a sample of the supernatant. […] For assay blanks, EA was omitted. AdoMet:Ptd-EA N-methyltransferase activity was measured essentially as described (Datko and Mudd, 1988b). Assays (final volume 100 μl) contained 9 μl 10X assay buffer, 0.8 nmol (47 nCi) [methyl-^14C]AdoMet, 10 μl of a Ptd-EA emulsion in 1× assay buffer (10 mg ml^−1, sonicated for 3×30 sec), and enzyme extract; incubation was for 30 min at 30° C. The phospholipid fraction was isolated for ^14C quantification as described (Datko and Mudd, 1988b) except that the methanol:chloroform:water proportions were 12:5:1 (vol./vol./vol.). Data were corrected for the ^14C incorporation in control assays containing extract from Bx22 cells.

[3] = molecular target: T2, ΔPEAMT (Spinacia oleracea, UniProt Q9M571); assay: PEAMT activity assay with extracts of S. pombe Bx22 cells expressing truncated ΔPEAMT; type: biochemical
T2 construct: made in house; host or cells: Schizosaccharomyces pombe Bx22 (leu1 cho2-) carrying pREP3-ΔPEAMT; desalted crude extract, not purified
T2 sequence (Q9M571 with tags, fused parts or gaps): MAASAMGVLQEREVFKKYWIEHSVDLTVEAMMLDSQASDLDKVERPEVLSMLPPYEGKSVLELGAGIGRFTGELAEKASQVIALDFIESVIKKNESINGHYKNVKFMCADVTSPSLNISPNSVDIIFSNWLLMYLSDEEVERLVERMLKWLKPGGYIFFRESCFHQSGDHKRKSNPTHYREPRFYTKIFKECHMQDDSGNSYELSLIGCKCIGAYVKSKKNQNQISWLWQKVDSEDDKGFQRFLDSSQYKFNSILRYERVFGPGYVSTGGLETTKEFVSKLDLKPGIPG
Protocol: The plasmid encoding PEAMT, designated pREP3-PEAMT, was digested with BamHI and end-polished with T4 DNA polymerase. The 3'-sequence of PEAMT was removed by digestion with MscI; the remaining sequence plus vector was gel-purified and religated to give ΔPEAMT. In ΔPEAMT the native coding sequence terminates at […], and the pREP3 polylinker adds the sequence […] to the carboxyl-terminus. Cells were grosn to an OD600 of ≈1 in 50 ml of medium at 30° C., shaking at 250 rpm. […] Subsequent operations were at 0-4° C. Cells were harvested by centrifugation (5000×g, 10 min), washed twice with water and once with 100 mM HEPES-KOH, pH 7.8, resuspended in 0.5 ml of lysis buffer (100 mM HEPES-KOH, pH 7.8, 2 mM Na2EDTA, 5 mM dithiothreitol, 10% glycerol) and transferred to 2-ml microfuge tubes containing ≈1.5 g of acid-washed glass beads (425-600 μm). Cells were broken by vortexing at maximum speed for 2 min. The brei was centrifuged (16,000×g, 2 min), the supernatant was removed and the beads were washed with 3×1 ml of lysis buffer. The combined supernatants were clarified by centrifugation (16,000×g, 15 min) and desalted on a PD-10 column (Amersham Pharmacia Biotech, Piscataway, N.J.) equilibrated with storage buffer (10 mM HEPES-KOH, pH 7.8, 2 mM Na2EDTA, 5 mM dithiotreitol, 10% glycerol). The extract was aliquotted, frozen in liquid N2 and stored at […]. Spinach leaf extracts were prepared as described (Summers and […], 1993). Protein was determined using the Bio-Rad dye reagent (Hercules, Calif.). Native molecular mass was estimated using a Waters 626 HPLC system (Milford, Mass.) equipped with a Superdex 200 HR 10/30 column (Amersham Pharmacia Biotech) as described ([…] al., 1995). PEAMT activity was measured by a modification of published methods (Datko and Mudd, 1988b; Summers and […], 1993), under conditions in which product formation was proportional to enzyme concentration and time. […] Products were eluted with 10 ml of 0.1 N HCl, and 2 ml of the eluate was mixed with 3 ml of Ready Gel scintillation fluid (Beckman, Palo Alto, Calif.) and counted. […]

[4] = molecular target: T1, PEAMT; assay: AdoMet:Ptd-EA N-methyltransferase activity assay of the complemented strain; type: biochemical; settings: complemented strain extract
Protocol: as §1

[5] = substrate: NCCOP(=O)(O)O; assay: PEAMT activity assay with extracts of S. pombe Bx22 cells expressing recombinant wild type PEAMT; type: biochemical, Spinacia oleracea; settings: other: recombinant PEAMT, substrate
Protocol: Cells were grosn to an OD600 of ≈1 in 50 ml of medium at 30° C., shaking at 250 rpm. […] Subsequent operations were at 0-4° C. Cells were harvested by centrifugation (5000×g, 10 min), washed twice with water and once with 100 mM HEPES-KOH, pH 7.8, resuspended in 0.5 ml of lysis buffer (100 mM HEPES-KOH, pH 7.8, 2 mM Na2EDTA, 5 mM dithiothreitol, 10% glycerol) and transferred to 2-ml microfuge tubes containing ≈1.5 g of acid-washed glass beads (425-600 μm). Cells were broken by vortexing at maximum speed for 2 min. The brei was centrifuged (16,000×g, 2 min), the supernatant was removed and the beads were washed with 3×1 ml of lysis buffer. The combined supernatants were clarified by centrifugation (16,000×g, 15 min) and desalted on a PD-10 column (Amersham Pharmacia Biotech, Piscataway, N.J.) equilibrated with storage buffer (10 mM HEPES-KOH, pH 7.8, 2 mM Na2EDTA, 5 mM dithiotreitol, 10% glycerol). […] Protein was determined using the Bio-Rad dye reagent (Hercules, Calif.). […] PEAMT activity was measured by a modification of published methods (Datko and Mudd, 1988b; Summers and […], 1993), under conditions in which product formation was proportional to enzyme concentration and time. […] Products were eluted with 10 ml of 0.1 N HCl, and 2 ml of the eluate was mixed with 3 ml of Ready Gel scintillation fluid (Beckman, Palo Alto, Calif.) and counted. […]

[6] = 3-hr incubation, small quantity of P-EA, 5-fold excess of [methyl-14C]AdoMet

Molecule: C[S+](CC[C@H](N)C(=O)[O-])C[C@H]1O[C@@H](n2cnc3c(N)ncnc32)[C@H](O)[C@@H]1O (stereo partly drawn) [AdoMet, S-adenosyl-L-methionine]
Km ([1]; recombinant PEAMT, substrate): 140 µM

Molecule: CN(C)CCO [DME]
inhibition of PEAMT activity (in words) [1]: not inhibitory

Molecule: NCCO [EA, ethanolamine]
activity with EA as substrate [2]: < 1 pkat mg^−1 protein

B1: PEAMT (Spinacia oleracea) (protein)
chain: MAASAMGVLQEREVFKKYWIEHSVDLTVEAMMLDSQASDLDKVERPEVLSMLPPYEGKSVLELGAGIGRFTGELAEKASQVIALDFIESVIKKNESINGHYKNVKFMCADVTSPSLNISPNSVDIIFSNWLLMYLSDEEVERLVERMLKWLKPGGYIFFRESCFHQSGDHKRKSNPTHYREPRFYTKIFKECHMQDDSGNSYELSLIGCKCIGAYVKSKKNQNQISWLWQKVDSEDDKGFQRFLDSSQYKFNSILRYERVFGPGYVSTGGLETTKEFVSKLDLKPGQKVLDVGCGIGGGDFYMAENYDVEVVGIDLSINMISFALERSIGLKCAVEFEVADCTKKDYPENSFDVIYSRDTILHIQDKPALFRSFHKWLKPGGKVLISDYCKSAGTPSAEFAAYIRQRGYDLHDVKAYGKMLKDAGFVEVIAENRTDQFIQVLQKELDALEQEKDDFIDDFSEEDYNDIVDGWKAKLVRTTEGEQQWGLFIAKKM
notes: The PEAMT cDNA comprises a 494-residue open reading frame; made in house; host or cells: Schizosaccharomyces pombe Bx22 (leu1 cho2-) carrying pREP3-PEAMT; desalted crude extract, not purified
Km [5]: 96 µM

Continued, in another order:

inhibition of PEAMT activity (in words) [1]: not inhibitory
Molecule: C[N+](C)(C)CC(=O)[O-] [GlyBet, glycine betaine]

inhibition of PEAMT activity (in words) [1]: not inhibitory
Molecule: CNCCO [MME]

reduction of PEAMT activity ([1]; 2 mM P-Cho, 50 nmol P-EA, 170 nmol [methyl-14C]AdoMet, 10 min): 80%
inhibition at 10000 µM ([1]; 10 mM P-Cho, saturating P-EA concentration, read-out: reduction (inhibition) of PEAMT activity): 95%
Molecule: C[N+](C)(C)CCOP(=O)([O-])O [P-Cho, phosphocholine]
sensitivity of ΔPEAMT to P-Cho compared with the wild-type enzyme ([3]; 10 mM P-Cho, P=0.05): retaining twice as much of its initial activity

PEAMT activity in the absence of P-Cho ([1]; 25 μg protein, 10 min, 50 nmol P-EA, 170 nmol AdoMet): 737±18 pkat mg^−1 protein
reaction product [1, 6]: almost solely [^14C]P-Cho
specific activity of PEAMT in extracts of complemented cells relative to spinach leaves ([1]; FIG. 2A): up to 80 fold
pH optimum of PEAMT activity ([1]; recombinant PEAMT): 8.1-8.5
Molecule: S-adenosyl-L-methionine:phosphoethanolamine N-methyltransferase [PEAMT]

activity with Ptd-EA as substrate [4]: < 1 pkat mg^−1 protein
Molecule: phosphatidylethanolamine [Ptd-EA]

PEAMT activity in the absence of P-Cho ([3]; 50 μg protein, 10 min, 50 nmol P-EA, 170 nmol AdoMet): 200±10 pkat mg^−1 protein
reaction product [3, 6]: only [^14C]P-MME
B2: ΔPEAMT: truncated spinach PEAMT; native coding sequence terminates at Gly-286, plus Ile Pro Gly; SEQ ID NO:4 (protein, listed as Spinacia oleracea)
chain: MAASAMGVLQEREVFKKYWIEHSVDLTVEAMMLDSQASDLDKVERPEVLSMLPPYEGKSVLELGAGIGRFTGELAEKASQVIALDFIESVIKKNESINGHYKNVKFMCADVTSPSLNISPNSVDIIFSNWLLMYLSDEEVERLVERMLKWLKPGGYIFFRESCFHQSGDHKRKSNPTHYREPRFYTKIFKECHMQDDSGNSYELSLIGCKCIGAYVKSKKNQNQISWLWQKVDSEDDKGFQRFLDSSQYKFNSILRYERVFGPGYVSTGGLETTKEFVSKLDLKPGIPG
